Laboratory results taken from ChEMBL document CHEMBL5465560, “Selectivity Literature for EUbOPEN Chemogenomic Library” (2024).

Experiments:
[1] = tested on: Tyrosine-protein kinase ABL1 (Homo sapiens), P00519 [Y253F]; details: at 10 µM
[2] = molecular target: Vascular endothelial growth factor receptor 1 (Homo sapiens) (UniProt P17948); test: Selectivity interaction (Upstate Kinase Profiler service (Millipore)) EUB0000056c FLT1; details: at 1 µM
[3] = molecular target: Serine/threonine-protein kinase Chk2 (Homo sapiens) (UniProt O96017); test: Selectivity interaction (ProQinase) EUB0000171b CHEK2
[4] = molecular target: T1, Serine/threonine-protein kinase Nek1 (Homo sapiens) (UniProt Q96PY6); test: Selectivity interaction (ProQinase) EUB0000171b NEK1
T1 sequence (whole entry): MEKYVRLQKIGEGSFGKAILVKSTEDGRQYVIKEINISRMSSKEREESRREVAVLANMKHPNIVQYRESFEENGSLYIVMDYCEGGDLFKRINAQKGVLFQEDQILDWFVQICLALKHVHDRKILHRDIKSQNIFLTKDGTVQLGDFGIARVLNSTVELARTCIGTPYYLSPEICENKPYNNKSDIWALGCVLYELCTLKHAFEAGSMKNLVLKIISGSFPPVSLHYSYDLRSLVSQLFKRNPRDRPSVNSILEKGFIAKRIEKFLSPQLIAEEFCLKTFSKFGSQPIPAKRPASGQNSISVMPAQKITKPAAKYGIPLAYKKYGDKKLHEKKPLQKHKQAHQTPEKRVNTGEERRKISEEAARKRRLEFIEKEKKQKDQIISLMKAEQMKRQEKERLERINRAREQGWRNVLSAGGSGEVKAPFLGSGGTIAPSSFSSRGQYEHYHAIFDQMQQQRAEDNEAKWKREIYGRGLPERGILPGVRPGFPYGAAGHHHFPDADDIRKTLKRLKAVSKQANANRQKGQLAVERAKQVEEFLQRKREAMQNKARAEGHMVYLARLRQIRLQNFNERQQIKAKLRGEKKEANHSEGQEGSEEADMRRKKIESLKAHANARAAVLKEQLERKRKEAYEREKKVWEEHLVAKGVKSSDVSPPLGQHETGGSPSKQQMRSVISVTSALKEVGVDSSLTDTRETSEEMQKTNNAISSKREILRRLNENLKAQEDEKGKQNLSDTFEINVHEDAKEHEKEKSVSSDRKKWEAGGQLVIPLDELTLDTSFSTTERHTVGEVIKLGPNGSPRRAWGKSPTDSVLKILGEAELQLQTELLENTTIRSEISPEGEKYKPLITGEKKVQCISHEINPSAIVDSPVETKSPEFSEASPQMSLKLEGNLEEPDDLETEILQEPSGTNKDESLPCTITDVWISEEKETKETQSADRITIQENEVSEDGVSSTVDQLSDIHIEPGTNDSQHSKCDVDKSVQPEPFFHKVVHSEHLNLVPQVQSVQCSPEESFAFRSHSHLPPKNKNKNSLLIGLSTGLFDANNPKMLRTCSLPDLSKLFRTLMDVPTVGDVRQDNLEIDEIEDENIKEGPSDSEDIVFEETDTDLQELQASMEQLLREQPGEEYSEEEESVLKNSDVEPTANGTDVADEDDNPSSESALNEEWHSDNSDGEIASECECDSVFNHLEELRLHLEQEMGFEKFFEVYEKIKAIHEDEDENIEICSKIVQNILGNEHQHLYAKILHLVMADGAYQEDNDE

[5] = molecular target: AP2-associated protein kinase 1 (Homo sapiens, UniProt Q2M2I8); test: Selectivity interaction (KinomeScan (DiscoverX)) EUB0001079a AAK1; details: at 1 µM
[6] = molecular target: Serine/threonine-protein kinase 24 (Homo sapiens) (UniProt Q9Y6E0); test: Selectivity interaction (KinomeScan (DiscoverX)) EUB0001079a STK24; details: at 1 µM
[7] = molecular target: Calcium/calmodulin-dependent protein kinase kinase 2 (Homo sapiens) (UniProt Q96RR4); test: Selectivity interaction (LanthaScreen Eu Kinase Binding Assay) EUB0001632a CAMKK2; details: at 10 µM
[8] = molecular target: ATPase family AAA domain-containing protein 2 (Homo sapiens) (UniProt Q6PL18); test: Selectivity interaction (Bromodomain panel (DSF asssay)) EUB0000270b ATAD2
[9] = molecular target: MAP kinase-interacting serine/threonine-protein kinase 2 (Homo sapiens, UniProt Q9HBH9); test: Selectivity interaction (KinomeScan (DiscoverX)) EUB0000695a MKNK2; details: at 100 nM
[10] = molecular target: T2, Serine/threonine-protein kinase ULK3 (Homo sapiens) (UniProt Q6PHR2); test: Selectivity interaction (Ambit KINOMEscan and KiNATiv profiling in Jurkat cells) EUB0000090b ULK3; format: cell-based; details: at 1 µM
T2 sequence (whole entry): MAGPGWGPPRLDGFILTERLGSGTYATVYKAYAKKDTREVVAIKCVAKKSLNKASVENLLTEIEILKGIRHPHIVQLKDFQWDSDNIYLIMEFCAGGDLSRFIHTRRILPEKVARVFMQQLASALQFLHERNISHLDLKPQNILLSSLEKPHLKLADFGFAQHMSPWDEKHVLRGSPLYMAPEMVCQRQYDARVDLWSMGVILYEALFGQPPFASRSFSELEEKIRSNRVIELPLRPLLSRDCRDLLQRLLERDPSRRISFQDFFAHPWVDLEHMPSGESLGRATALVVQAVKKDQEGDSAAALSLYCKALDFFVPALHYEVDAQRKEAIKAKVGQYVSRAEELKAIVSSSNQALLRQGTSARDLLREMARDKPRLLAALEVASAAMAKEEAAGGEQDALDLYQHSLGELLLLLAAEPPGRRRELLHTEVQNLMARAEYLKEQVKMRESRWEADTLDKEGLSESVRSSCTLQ

Chain of Serine/threonine-protein kinase Chk2 (Homo sapiens) (O96017 whole entry): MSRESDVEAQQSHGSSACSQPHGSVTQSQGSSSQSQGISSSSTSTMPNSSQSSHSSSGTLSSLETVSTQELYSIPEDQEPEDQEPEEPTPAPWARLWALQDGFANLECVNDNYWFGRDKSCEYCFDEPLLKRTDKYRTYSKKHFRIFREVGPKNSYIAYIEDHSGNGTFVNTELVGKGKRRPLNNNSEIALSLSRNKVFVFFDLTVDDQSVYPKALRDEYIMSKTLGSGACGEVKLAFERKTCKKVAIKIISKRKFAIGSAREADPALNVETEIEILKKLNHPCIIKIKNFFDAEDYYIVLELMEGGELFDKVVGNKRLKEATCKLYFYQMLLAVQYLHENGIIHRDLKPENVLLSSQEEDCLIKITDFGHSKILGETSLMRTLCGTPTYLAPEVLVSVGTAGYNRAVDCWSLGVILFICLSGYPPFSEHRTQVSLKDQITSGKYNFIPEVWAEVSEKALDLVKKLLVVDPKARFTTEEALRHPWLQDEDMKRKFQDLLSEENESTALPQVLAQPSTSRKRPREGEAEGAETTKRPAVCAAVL
Chain of Calcium/calmodulin-dependent protein kinase kinase 2 (Homo sapiens) (Q96RR4 2-588 limits assumed): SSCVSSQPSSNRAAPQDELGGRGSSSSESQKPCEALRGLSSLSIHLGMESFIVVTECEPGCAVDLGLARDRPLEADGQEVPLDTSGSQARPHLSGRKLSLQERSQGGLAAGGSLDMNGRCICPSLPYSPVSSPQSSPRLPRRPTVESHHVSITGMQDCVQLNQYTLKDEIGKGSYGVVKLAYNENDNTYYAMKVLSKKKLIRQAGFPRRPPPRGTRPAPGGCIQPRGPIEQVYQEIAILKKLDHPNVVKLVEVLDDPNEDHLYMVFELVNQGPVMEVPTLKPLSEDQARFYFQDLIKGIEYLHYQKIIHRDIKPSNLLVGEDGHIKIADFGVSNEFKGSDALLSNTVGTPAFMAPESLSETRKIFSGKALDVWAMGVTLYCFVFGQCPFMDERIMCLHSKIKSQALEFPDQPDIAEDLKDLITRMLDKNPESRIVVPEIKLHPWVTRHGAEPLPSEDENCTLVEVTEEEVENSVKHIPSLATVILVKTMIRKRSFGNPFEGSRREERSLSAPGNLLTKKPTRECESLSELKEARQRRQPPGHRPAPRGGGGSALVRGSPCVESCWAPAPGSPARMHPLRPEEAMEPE
Chain of MAP kinase-interacting serine/threonine-protein kinase 2 (Q9HBH9 whole entry, looked up): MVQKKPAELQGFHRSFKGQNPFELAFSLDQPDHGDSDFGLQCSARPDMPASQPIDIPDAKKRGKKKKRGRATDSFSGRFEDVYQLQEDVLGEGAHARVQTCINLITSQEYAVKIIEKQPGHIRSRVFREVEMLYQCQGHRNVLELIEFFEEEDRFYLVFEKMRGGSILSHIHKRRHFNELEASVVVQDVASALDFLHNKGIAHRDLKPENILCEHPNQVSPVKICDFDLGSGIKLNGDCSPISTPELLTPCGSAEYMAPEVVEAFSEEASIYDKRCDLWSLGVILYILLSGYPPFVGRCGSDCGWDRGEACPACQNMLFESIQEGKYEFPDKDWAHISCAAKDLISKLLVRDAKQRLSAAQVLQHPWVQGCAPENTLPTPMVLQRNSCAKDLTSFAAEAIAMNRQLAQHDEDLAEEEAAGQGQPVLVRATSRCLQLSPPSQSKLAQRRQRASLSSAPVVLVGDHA
Chain of ATPase family AAA domain-containing protein 2 (Homo sapiens) (Q6PL18 whole entry, the tested form may be a part): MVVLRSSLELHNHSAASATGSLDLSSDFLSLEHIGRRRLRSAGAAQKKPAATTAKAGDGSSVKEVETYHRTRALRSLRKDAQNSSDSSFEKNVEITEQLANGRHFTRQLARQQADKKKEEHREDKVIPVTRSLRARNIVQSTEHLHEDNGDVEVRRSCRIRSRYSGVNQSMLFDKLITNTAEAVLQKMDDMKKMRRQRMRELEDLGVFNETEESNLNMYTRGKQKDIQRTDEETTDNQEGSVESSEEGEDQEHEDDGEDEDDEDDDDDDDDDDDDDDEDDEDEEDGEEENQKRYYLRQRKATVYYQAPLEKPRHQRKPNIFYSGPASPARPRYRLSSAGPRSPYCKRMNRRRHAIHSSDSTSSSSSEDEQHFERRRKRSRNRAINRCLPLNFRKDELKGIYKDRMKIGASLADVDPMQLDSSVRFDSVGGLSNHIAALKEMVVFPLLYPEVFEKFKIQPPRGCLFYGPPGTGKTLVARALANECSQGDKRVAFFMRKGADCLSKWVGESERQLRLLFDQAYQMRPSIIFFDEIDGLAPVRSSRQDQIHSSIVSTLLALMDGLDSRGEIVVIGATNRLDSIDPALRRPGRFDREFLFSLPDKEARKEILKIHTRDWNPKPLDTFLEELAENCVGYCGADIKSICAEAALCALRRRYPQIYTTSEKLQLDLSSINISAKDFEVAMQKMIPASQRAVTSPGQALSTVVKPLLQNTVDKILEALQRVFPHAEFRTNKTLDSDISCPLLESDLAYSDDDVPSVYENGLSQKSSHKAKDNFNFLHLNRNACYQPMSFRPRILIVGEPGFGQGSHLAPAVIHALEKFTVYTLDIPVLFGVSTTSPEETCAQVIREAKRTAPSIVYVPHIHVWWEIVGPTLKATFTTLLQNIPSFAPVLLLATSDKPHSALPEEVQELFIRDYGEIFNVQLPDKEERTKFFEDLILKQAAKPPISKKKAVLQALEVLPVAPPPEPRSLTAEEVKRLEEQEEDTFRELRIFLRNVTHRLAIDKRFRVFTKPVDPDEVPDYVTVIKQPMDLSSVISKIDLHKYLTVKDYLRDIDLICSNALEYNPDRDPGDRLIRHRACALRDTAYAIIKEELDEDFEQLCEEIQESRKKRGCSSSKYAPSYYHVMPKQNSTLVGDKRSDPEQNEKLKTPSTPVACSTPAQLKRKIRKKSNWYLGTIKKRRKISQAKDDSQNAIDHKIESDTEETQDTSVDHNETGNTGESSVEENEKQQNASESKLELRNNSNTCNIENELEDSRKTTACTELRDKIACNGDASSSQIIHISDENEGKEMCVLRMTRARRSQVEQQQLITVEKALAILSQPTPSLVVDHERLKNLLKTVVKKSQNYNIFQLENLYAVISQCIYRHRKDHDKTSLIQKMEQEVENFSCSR
Chain of AP2-associated protein kinase 1 (Q2M2I8 whole entry, looked up): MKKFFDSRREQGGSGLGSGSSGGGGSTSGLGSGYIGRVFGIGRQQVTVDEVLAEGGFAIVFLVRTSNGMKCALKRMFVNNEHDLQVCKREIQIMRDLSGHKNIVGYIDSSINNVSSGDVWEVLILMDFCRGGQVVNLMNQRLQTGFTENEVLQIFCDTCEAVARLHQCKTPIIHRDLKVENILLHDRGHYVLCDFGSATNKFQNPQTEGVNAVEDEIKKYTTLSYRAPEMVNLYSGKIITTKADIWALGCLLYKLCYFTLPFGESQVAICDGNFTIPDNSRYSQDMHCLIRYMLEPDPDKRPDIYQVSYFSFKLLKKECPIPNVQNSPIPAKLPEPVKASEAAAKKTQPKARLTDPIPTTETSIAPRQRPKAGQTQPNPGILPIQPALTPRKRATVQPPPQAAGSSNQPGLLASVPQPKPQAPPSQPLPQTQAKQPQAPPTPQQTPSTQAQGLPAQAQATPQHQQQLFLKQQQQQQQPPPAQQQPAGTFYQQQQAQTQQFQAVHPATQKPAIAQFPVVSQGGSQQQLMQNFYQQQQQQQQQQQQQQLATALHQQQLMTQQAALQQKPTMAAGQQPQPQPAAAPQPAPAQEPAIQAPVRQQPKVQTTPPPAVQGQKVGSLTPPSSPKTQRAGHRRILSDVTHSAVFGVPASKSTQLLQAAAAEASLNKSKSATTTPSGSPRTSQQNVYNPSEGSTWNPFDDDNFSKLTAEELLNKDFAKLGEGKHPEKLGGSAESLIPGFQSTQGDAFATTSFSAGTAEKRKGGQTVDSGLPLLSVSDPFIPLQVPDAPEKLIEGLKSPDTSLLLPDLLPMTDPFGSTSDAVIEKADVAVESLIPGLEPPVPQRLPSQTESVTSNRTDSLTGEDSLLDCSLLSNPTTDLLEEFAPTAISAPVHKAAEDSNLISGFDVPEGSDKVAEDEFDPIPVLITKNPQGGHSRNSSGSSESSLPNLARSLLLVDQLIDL
Chain of Serine/threonine-protein kinase 24 (Homo sapiens) (Q9Y6E0 whole entry, looked up): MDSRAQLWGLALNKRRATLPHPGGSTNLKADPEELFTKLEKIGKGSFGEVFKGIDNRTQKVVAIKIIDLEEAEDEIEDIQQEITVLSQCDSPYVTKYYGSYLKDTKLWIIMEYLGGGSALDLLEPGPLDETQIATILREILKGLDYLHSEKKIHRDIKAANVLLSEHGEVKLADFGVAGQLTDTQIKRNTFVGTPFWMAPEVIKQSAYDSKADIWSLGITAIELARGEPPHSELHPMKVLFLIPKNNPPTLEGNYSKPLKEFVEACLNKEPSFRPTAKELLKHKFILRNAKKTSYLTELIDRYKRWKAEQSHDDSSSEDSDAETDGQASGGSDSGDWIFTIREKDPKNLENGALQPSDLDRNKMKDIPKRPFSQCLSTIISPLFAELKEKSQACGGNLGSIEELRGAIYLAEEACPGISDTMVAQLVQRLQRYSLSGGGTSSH

## CCN(CC)CCCCNc1ncc2cc(-c3cc(OC)cc(OC)c3)c(NC(=O)NC(C)(C)C)nc2n1
[1]
  % of control: 100%

## Cc1ccc(-c2ccc3c(ccc4sc5c(c43)NC[C@@H](C)NC5=O)n2)cn1
[2]
  % of inhibition: 21%

## C=CC(=O)Nc1cccc(C(=O)Nc2ccc(Nc3cc(-c4[nH]c(SC)nc4C)ccn3)cc2)c1
[3]; at 1 µM
  % of control: 70%
[3]; at 5 µM
  % of control: 36%
[4]; at 1 µM
  % of control: 80%
[4]; at 5 µM
  % of control: 64%

## Nc1cnc(N2CCc3cc(S(=O)(=O)Nc4c(F)cc(Cl)cc4F)cc(N4CCCC4=O)c32)nc1 [TP-020n]
[5]
  % of control: 100%
[6]
  % of control: 100%

## Cn1cc(-n2cnc3c(NCc4nc5cc(Cl)c(Cl)cc5[nH]4)nc(N4CCOCC4)nc32)cn1
[7]
  % of inhibition: -0.213%

## Cc1cc(CN)cc(C)c1-c1ncn(C)c1-c1cncn1C
[8]
  dTM: -1.82 K

## Cc1cc(F)c(C(=O)Nc2cccc(-c3nncn3C(C)C)n2)cc1-n1cnc(C2CC2)c1
[9]
  % of control: 75%

## CN(C)C/C=C/C(=O)Nc1ccc(C(=O)N2CCCC(Nc3ncc(Cl)c(-c4c[nH]c5ccccc45)n3)C2)cc1 (configuration not stated)
[10]
  % of control: 87%
